# Assay results reported in patent publication US20250352615A1, “COMPOSITIONS AND METHODS FOR THE MODULATION OF PIEZO1 AND TRPV4” (Duke University, priority 2021, published 2025).
# Legend:
# Format in all cases: cell-based
# TRPV4 [1] = target: T1, TRPV4 (Mus musculus, UniProt Q9EPK8); experiment: Calcium imaging of TRPV4-mediated [Ca2+]i in pancreatic acini (agonists, shear stress, Yoda1 sustained phase); settings: Yoda1
# T1 construct: endogenous in cells; host or cells: freshly isolated mouse pancreatic acini (C57BL/6J WT)
# Protocol: Mouse pancreatic acini were isolated using a standard collagenase digestion protocol. Isolated acini were plated on a thin-layered, Matrigel-coated, glass-bottom, culture plate (MatTek, P35G-0-14-C). Freshly isolated acini were used in each experiment.
# Parallel-plate fluid flow chambers (μ-Slide I 0.4 Luer, and μ-Slide I 0.2 Luer from Ibidi GmbH) were used to measure the shear stress-induced changes in intracellular calcium, mitochondrial depolarization, and trypsin activation. The constant flow rate with shear stress (T) was determined as follows: τ=η×[…] φ for μ-Slide I 0.4 Luer and τ=η×330.4 φ for μ-Slide I 0.2 Luer, where η=viscosity of the medium and φ=flow rate (according to the manufacturer's instructions, Ibidi).
# Calcium imaging in pancreatic acini was performed as previously described. The chemicals used in calcium imaging experiments included the following: Yoda1 (Tocris; 5586), GsMTx4 (Abcam; ab141871), 5′,6′-EET (Santa Cruz Biotechnology; sc-221066), AA (Millipore Sigma; A3611), HC067047 (Tocris; 4100), GSK1016790A (Millipore Sigma; G0798), RN1734 (Tocris; 3746), AACOCF3 (Tocris; 1462), YM26734 (Tocris; 2522), GF109203X (Tocris; 0741), and CCK8 (Sigma-Aldrich).
# TRPV4 [2] = target: T1, TRPV4; experiment: Calcium imaging of TRPV4-mediated [Ca2+]i in mouse PSCs; settings: Yoda1 25 μM
# Protocol: Mouse and human PSCs were isolated using collagenase digestion. Modified Krebs Henseleit Buffer (KHB) solution (100 mL) was prepared as previously described by Romac et al., Nat. Commun. 9(1):1715 (2018). Pancreatic tissue was digested with 2 mg of collagenase NB 8 (SERVA, catalog 17456) dissolved in 10 mL of modified KHB solution containing 1 mg soybean trypsin inhibitor (SBTI 1-S; Millipore Sigma, catalog T9003) and 20 mg BSA (Thermo Fisher Scientific; BP1600-100). Digestion solution (5 mL) was used to inflate the pancreas. Pancreas with 5 mL of digestion solution was incubated in a shaking water bath for 10 minutes at 37° C. The solution was then discarded. The pancreas tissue was cut into small pieces and digested with fresh 5 mL digestion buffer. Tissue was incubated in a shaking water bath for 40 minutes at 37° C. The cells were then separated from tissue by pipetting up-down with a 10 mL pipette and passed sequentially through a 70 μm and a 40 μm cell strainer. The filtrate was centrifuged at 150×g for 3 minutes at room temperature. The cells were washed with 10 mL Leibovitz's media (Thermo Fisher Scientific, catalog 11415-064), passed through a 20 μm filter, and centrifuged at 80×g for 3 minutes at room temperature. The supernate was removed, and isolated stellate cells were plated on a thin-layered Matrigel-coated glass bottom culture plate (MatTek, P35G-0-14-C). Before plating the cells, Matrigel solution (Corning, catalog 354234) at a ratio of 1.5:100 DMEM/F12 (Thermo Fisher Scientific, catalog 11330-032) was poured onto the culture plate and incubated for 2 hr at 37° C. to form a thin layer of Matrigel coating. Matrigel mixture was removed, and the plate was washed with PBS before cells were plated. Cell culture media, DMEM/F12 with 5% FBS was used for mouse stellate cells. Fresh, human pancreatic tissue was digested with collagenase as described above with modifications. […] The cell viability following Yoda1 treatment was analyzed using the Live/Dead cell imaging kit (Thermo Fisher Scientific, catalog R37601). […]
# [3] = tested on: Yes-associated protein (YAP); experiment: YAP nuclear localization in mouse stellate cells (immunostaining); settings: Yoda1 25 μM for 4 hr
# Protocol: Murine stellate cells from wild type or Piezo1^GFAPKO mice were activated with 25 μM Yoda 1 for 4 hours before fixation. Immunostaining staining was performed as described in Swain et al. JCI Insight 7:e158288 (2022). Yap antibody was diluted at 1/100.
# T1 sequence (Q9EPK8 whole entry): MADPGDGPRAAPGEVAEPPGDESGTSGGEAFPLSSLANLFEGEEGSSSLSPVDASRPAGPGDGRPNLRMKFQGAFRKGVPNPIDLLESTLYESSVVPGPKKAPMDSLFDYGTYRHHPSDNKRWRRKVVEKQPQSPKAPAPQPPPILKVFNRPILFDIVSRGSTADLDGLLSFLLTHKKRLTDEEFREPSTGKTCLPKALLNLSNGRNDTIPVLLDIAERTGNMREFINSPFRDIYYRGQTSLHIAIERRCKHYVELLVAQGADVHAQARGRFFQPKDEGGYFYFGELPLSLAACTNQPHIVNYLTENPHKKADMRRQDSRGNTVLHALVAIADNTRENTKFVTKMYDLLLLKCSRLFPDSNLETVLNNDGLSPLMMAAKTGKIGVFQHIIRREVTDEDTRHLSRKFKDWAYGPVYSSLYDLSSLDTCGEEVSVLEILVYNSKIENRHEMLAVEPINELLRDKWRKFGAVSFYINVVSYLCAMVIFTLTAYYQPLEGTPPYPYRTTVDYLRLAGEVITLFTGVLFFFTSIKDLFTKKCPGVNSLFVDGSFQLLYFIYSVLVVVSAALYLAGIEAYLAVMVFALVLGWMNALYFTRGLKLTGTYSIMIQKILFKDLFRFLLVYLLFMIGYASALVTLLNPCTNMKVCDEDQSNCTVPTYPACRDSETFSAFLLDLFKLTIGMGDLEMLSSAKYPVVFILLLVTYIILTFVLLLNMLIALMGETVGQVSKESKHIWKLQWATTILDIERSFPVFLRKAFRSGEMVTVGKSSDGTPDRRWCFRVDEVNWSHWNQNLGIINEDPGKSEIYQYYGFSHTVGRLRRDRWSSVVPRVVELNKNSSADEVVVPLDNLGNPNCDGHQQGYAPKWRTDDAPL
smiles,measurement,setting,value
Clc1cccc(Cl)c1CSc1nnc(-c2cnccn2)s1 [Yoda1],[Ca2+]i response in acini from TRPV4-KO mice,TRPV4 [1],only transient elevation in [Ca^2+]i
same,[Ca2+]i response in TRPV4-null PSCs,TRPV4 [2],caused only transient calcium elevations in TRPV4-null PSCs
same,YAP nuclear localization in stellate cells from Piezo1GFAP-KO mice,[3],No changes were observed
same,YAP nuclear localization,"[3]; wild-type stellate cells, preliminary",increases YAP nuclear localization
